Target: T1, ITK (Homo sapiens, UniProt Q08881)
T1 sequence (Q08881 1-620): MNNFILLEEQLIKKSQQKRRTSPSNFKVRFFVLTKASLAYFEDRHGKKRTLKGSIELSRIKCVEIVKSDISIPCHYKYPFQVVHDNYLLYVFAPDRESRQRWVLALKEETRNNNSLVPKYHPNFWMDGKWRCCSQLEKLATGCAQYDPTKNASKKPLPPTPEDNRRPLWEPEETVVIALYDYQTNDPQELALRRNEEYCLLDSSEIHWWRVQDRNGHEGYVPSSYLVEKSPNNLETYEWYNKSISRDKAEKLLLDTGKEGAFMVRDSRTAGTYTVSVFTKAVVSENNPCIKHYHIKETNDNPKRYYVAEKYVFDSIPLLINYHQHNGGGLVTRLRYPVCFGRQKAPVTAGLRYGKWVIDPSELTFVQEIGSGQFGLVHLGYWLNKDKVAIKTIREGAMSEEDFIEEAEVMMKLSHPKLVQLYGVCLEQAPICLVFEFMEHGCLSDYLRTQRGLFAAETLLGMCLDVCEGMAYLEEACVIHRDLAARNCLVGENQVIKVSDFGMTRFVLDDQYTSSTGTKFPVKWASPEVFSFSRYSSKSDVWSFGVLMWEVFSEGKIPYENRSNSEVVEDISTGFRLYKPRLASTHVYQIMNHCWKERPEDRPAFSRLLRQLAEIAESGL
Assay: ITK degradation HiBiT assay
Format: cell-based
Set-up: expressed in transfected cells; host or cells: Molt4 (ATCC CRL-1552), monoclonal clone 1C10, engineered to carry the HiBiT tag
Settings: 4 hrs; for DC50: C-terminal HiBiT-tagged Molt4 cells; for Dmax: MOLT-4, C-terminal HiBiT-tagged Molt4 cells
Method in brief: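 C-terminal HiBiT-tagged Molt4 cells (clone 1C10) treated 4 h at 32° C with an 11-point, 5-fold compound dilution series (0.5% DMSO). HiBiT lytic detection with LgBiT then luminescence read; % ITK remaining versus concentration fit by four-parameter variable-slope model to give DC50 and Dmax.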

Row | DC50 [nM] | Dmax [%] | SMILES
1 | < 0.01 | 89 | C[C@@]12Cc3[nH]nc(C(=O)Nc4cnn(C5CCN(CC6CCN(c7ccc(C8CCC(=O)NC8=O)cc7)CC6)CC5)c4)c3C[C@@H]1C2(F)F (stereo partly drawn) [Compound 92, (4aS,5aR)-N-(1-(1-((1-(4-(2,6-dioxopiperidin-3-yl)phenyl)piperidin-4-yl)methyl)piperidin-4-yl)-1H-pyrazol-4-yl)-5,5-difluoro-5a-methyl-1,4,4a,5,5a,6-hexahydrocyclopropa[f]indazole-3-carboxamide]
2 | 1.9 | 97 | C[C@@]12Cc3[nH]nc(C(=O)Nc4cnn([C@H]5CCN(CC6CCN(c7ccc(C(=O)N[C@H]8CCC(=O)NC8=O)nc7)CC6)C[C@@H]5F)c4)c3C[C@@H]1C2(F)F [Compound 93, (4aS,5aR)-N-(1-((3S,4S)-1-((1-(6-(((S)-2,6-dioxopiperidin-3-yl)carbamoyl)pyridin-3-yl)piperidin-4-yl)methyl)-3-fluoropiperidin-4-yl)-1H-pyrazol-4-yl)-5,5-difluoro-5a-methyl-1,4,4a,5,5a,6-hexahydrocyclopropa[f]indazole-3-carboxamide]
3 | 1.8 | 88 | C[C@@]12Cc3[nH]nc(C(=O)Nc4ccc(C5CCN(CC6CCN(c7ccc(C8CCC(=O)NC8=O)cc7)CC6)CC5)cc4)c3C[C@@H]1C2(F)F (stereo partly drawn) [Compound 108, (4aS,5aR)-N-(4-(1-((1-(4-(2,6-dioxopiperidin-3-yl)phenyl)piperidin-4-yl)methyl)piperidin-4-yl)phenyl)-5,5-difluoro-5a-methyl-1,4,4a,5,5a,6-hexahydrocyclopropa[f]indazole-3-carboxamide]
4 | 1.7 | 88 | C[C@@]12Cc3[nH]nc(C(=O)Nc4ccc(C5CCN(CC6CCN(c7ccc(C8CCC(=O)NC8=O)cc7)CC6)CC5)nc4)c3C[C@@H]1C2(F)F (stereo partly drawn) [Compound 110, (4aS,5aR)-N-(6-(1-((1-(4-(2,6-dioxopiperidin-3-yl)phenyl)piperidin-4-yl)methyl)piperidin-4-yl)pyridin-3-yl)-5,5-difluoro-5a-methyl-1,4,4a,5,5a,6-hexahydrocyclopropa[f]indazole-3-carboxamide]
5 | 0.4 | 80 | C[C@@]12Cc3[nH]nc(C(=O)Nc4cnn(C5CCN(CC6CCN(c7ccc(N8CCC(=O)NC8=O)cn7)CC6)CC5)c4)c3C[C@@H]1C2(F)F [Compound 113, (4aS,5aR)-N-{1-[1-({1-[5-(2,4-dioxo-1,3-diazinan-1-yl)pyridin-2-yl]piperidin-4-yl}methyl)piperidin-4-yl]-1H-pyrazol-4-yl}-5,5-difluoro-5a-methyl-1H,4H,4aH,5H,5aH,6H-cyclopropa[f]indazole-3-carboxamide]

Continued, molecule first:

Row | SMILES | DC50 [nM] | Dmax [%]
6 | C[C@@]12Cc3[nH]nc(C(=O)Nc4cnn([C@@H]5CCN(CC6CCN(c7ccc(C(=O)N[C@H]8CCC(=O)NC8=O)nc7)CC6)C[C@H]5F)c4)c3C[C@@H]1C2(F)F [Compound 94, (4aS,5aR)-N-(1-((3R,4R)-1-((1-(6-(((S)-2,6-dioxopiperidin-3-yl)carbamoyl)pyridin-3-yl)piperidin-4-yl)methyl)-3-fluoropiperidin-4-yl)-1H-pyrazol-4-yl)-5,5-difluoro-5a-methyl-1,4,4a,5,5a,6-hexahydrocyclopropa[f]indazole-3-carboxamide] | 3.4 | 83
7 | C[C@@]12Cc3[nH]nc(C(=O)Nc4cnn(C5CCN(CC6(F)CCN(c7ccc(C8CCC(=O)NC8=O)cc7)CC6)CC5)c4)c3C[C@@H]1C2(F)F (stereo partly drawn) [Compound 97, (4aS,5aR)-N-(1-(1-((1-(4-(2,6-dioxopiperidin-3-yl)phenyl)-4-fluoropiperidin-4-yl)methyl)piperidin-4-yl)-1H-pyrazol-4-yl)-5,5-difluoro-5a-methyl-1,4,4a,5,5a,6-hexahydrocyclopropa[f]indazole-3-carboxamide] | 2.6 | 88
8 | C[C@@]12Cc3[nH]nc(C(=O)Nc4cnn([C@H]5CCN(C[C@H]6CCN(c7ccc(C8CCC(=O)NC8=O)cc7)C6)C[C@@H]5F)c4)c3C[C@@H]1C2(F)F (stereo partly drawn) [Compound 98, (4aS,5aR)-N-(1-((3S,4S)-1-(((3R)-1-(4-(2,6-dioxopiperidin-3-yl)phenyl)pyrrolidin-3-yl)methyl)-3-fluoropiperidin-4-yl)-1H-pyrazol-4-yl)-5,5-difluoro-5a-methyl-1,4,4a,5,5a,6-hexahydrocyclopropa[f]indazole-3-carboxamide] | 0.7 | 89
9 | C[C@@]12Cc3[nH]nc(C(=O)Nc4cnn([C@@H]5CCN(C[C@H]6CCN(c7ccc(C8CCC(=O)NC8=O)cc7)C6)C[C@H]5F)c4)c3C[C@@H]1C2(F)F (stereo partly drawn) [Compound 99, (4aS,5aR)-N-(1-((3R,4R)-1-(((3R)-1-(4-(2,6-dioxopiperidin-3-yl)phenyl)pyrrolidin-3-yl)methyl)-3-fluoropiperidin-4-yl)-1H-pyrazol-4-yl)-5,5-difluoro-5a-methyl-1,4,4a,5,5a,6-hexahydrocyclopropa[f]indazole-3-carboxamide] | 3.7 | 85
10 | C[C@@]12Cc3[nH]nc(C(=O)Nc4cnn([C@H]5CCN(C[C@@H]6CCN(c7ccc(C8CCC(=O)NC8=O)cc7)C6)C[C@@H]5F)c4)c3C[C@@H]1C2(F)F (stereo partly drawn) [Compound 100, (4aS,5aR)-N-(1-((3S,4S)-1-(((3S)-1-(4-(2,6-dioxopiperidin-3-yl)phenyl)pyrrolidin-3-yl)methyl)-3-fluoropiperidin-4-yl)-1H-pyrazol-4-yl)-5,5-difluoro-5a-methyl-1,4,4a,5,5a,6-hexahydrocyclopropa[f]indazole-3-carboxamide] | 1.7 | 86
11 | C[C@@]12Cc3[nH]nc(C(=O)Nc4cnn([C@@H]5CCN(C[C@@H]6CCN(c7ccc(C8CCC(=O)NC8=O)cc7)C6)C[C@H]5F)c4)c3C[C@@H]1C2(F)F (stereo partly drawn) [Compound 101, (4aS,5aR)-N-(1-((3R,4R)-1-(((3S)-1-(4-(2,6-dioxopiperidin-3-yl)phenyl)pyrrolidin-3-yl)methyl)-3-fluoropiperidin-4-yl)-1H-pyrazol-4-yl)-5,5-difluoro-5a-methyl-1,4,4a,5,5a,6-hexahydrocyclopropa[f]indazole-3-carboxamide] | 1.1 | 87
12 | C[C@@]12Cc3[nH]nc(C(=O)Nc4ccc(C5CCN(CC6CCN(c7ccc(C8CCC(=O)NC8=O)cn7)CC6)CC5)cc4)c3C[C@@H]1C2(F)F (stereo partly drawn) [Compound 109, (4aS,5aR)-N-(4-(1-((1-(5-(2,6-dioxopiperidin-3-yl)pyridin-2-yl)piperidin-4-yl)methyl)piperidin-4-yl)phenyl)-5,5-difluoro-5a-methyl-1,4,4a,5,5a,6-hexahydrocyclopropa[f]indazole-3-carboxamide] | 0.73 | 91
13 | C[C@@]12Cc3[nH]nc(C(=O)Nc4ccc(C5CCN(CC6CCN(c7ccc(C8CCC(=O)NC8=O)cn7)CC6)CC5)nc4)c3C[C@@H]1C2(F)F (stereo partly drawn) [Compound 111, (4aS,5aR)-N-(6-(1-((1-(5-(2,6-dioxopiperidin-3-yl)pyridin-2-yl)piperidin-4-yl)methyl)piperidin-4-yl)pyridin-3-yl)-5,5-difluoro-5a-methyl-1,4,4a,5,5a,6-hexahydrocyclopropa[f]indazole-3-carboxamide] | 1.2 | 90

From US20240279202A1 (NURIX THERAPEUTICS, INC., priority 2021, published 2024)
